Measurements: paper PMC6744473, “Structure of the thermo-sensitive TRP channel TRP1 from the alga Chlamydomonas reinhardtii” (Nature Communications, 2019)
Where a name gives a salt, the structure may show the parent alone.

Assays:
[1] = molecular target: T1, crTRP1 (Chlamydomonas reinhardtii, UniProt Q0Z852); assay: planar lipid bilayer single-channel recording; format: biochemical; conditions: activator test; deletion borders not given, only primers; loss of activation
T1 construct: HEK 293S GnTI-; purified in GDN or LMNG; homotetramer; from primer N-terminus MKVAPAPASGQP, C-terminus TAAAGH before the tag

[2] = molecular target: T2, crTRP1 (Chlamydomonas reinhardtii, UniProt Q0Z852); assay: planar lipid bilayer single-channel recording; format: biochemical; conditions: activator 2.5 µM; POPG/POPC/POPE bilayer, pH 7.2, 28 °C; diC8 form added to both compartments
T2 construct: HEK 293S GnTI-; purified in GDN or LMNG; homotetramer; from primer N-terminus MKVAPAPASGQP, C-terminus TAAAGH before the tag
T2 sequence (Q0Z852 1-901): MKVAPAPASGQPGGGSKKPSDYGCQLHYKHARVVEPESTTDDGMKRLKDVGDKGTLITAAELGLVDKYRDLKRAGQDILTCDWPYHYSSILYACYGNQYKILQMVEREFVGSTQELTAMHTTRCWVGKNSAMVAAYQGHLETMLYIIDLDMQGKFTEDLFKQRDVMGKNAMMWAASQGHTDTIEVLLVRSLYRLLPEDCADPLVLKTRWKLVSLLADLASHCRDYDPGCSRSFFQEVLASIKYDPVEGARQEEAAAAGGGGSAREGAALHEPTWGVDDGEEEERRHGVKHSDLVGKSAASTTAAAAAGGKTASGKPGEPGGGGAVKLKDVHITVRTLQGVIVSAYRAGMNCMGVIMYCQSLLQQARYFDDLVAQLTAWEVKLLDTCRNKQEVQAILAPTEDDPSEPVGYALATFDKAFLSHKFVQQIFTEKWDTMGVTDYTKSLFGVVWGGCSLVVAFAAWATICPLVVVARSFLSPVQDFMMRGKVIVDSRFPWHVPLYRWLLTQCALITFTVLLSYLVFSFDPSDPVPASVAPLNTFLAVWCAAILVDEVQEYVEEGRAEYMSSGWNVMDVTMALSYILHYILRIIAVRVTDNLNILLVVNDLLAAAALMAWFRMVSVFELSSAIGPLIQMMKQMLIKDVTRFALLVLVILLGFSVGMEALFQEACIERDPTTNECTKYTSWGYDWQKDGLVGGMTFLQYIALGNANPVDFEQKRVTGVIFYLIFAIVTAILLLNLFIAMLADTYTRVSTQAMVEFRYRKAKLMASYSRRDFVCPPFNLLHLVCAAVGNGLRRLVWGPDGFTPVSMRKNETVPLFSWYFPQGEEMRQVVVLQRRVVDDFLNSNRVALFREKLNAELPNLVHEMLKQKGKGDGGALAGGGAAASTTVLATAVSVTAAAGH

[3] = molecular target: transient receptor potential (TRP) channel crTRP1 from Chlamydomonas reinhardtii (Chlamydomonas reinhardtii); assay: cryo-EM structure; crTRP1 in MSP2N2 nanodiscs (POPC:POPE 3:1; 150 mM KCl, 20 mM Hepes pH 7.4, 1 µM CaCl2, 20 µM MgCl2, no detergent); grids frozen at 22 °C; 3.45 Å; C2 symmetry; self-association: homotetramer
[4] = molecular target: transient receptor potential (TRP) channel crTRP1 from Chlamydomonas reinhardtii (Chlamydomonas reinhardtii); assay: cryo-EM structure; crTRP1 in detergent GDN (20 mM Tris pH 8.0, 150 mM NaCl, 0.01% GDN, 1 mM BME, 10 mM TCEP added); grids frozen at 4 °C; 3.53 Å; self-association: homotetramer
[5] = molecular target: T2, crTRP1; assay: planar lipid bilayer single-channel recording; format: biochemical; conditions: inhibitor 10 µM; 2.5 µM PIP2, 28 °C, +120 mV

## CCCCCCCC(=O)OC[C@H](COP(=O)(O)O[C@@H]1[C@H](O)[C@H](O)[C@@H](OP(=O)(O)O)[C@H](OP(=O)(O)O)[C@H]1O)OC(=O)CCCCCCC [PIP2, 1-(1,2R-dioctanoylphosphatidyl)inositol-4,5-bisphosphate, trisodium salt]
[1]
  planar lipid bilayer single-channel recording: deleting the entire pre-S1 elbow resulted in a greatly reduced Po and loss of activation by PIP2
[2]
  planar lipid bilayer single-channel recording: Addition of PIP2 readily evoked channel openings.

## transient receptor potential (TRP) channel crTRP1 from Chlamydomonas reinhardtii (natural protein)
[3]
  stoichiometry N: 4
[4]
  stoichiometry N: 4

## CC(C)(C)c1ccc(NC(=O)N2CCN(c3ncccc3Cl)CC2)cc1 [BCTC, N-(4-tertiarybutylphenyl)-4-(3-cholorphyridin-2-yl)tetrahydropyrazine-1(2 H)-carbox-amide]
[5]
  Po change at 10 μM: BCTC) strongly suppressed crTRP1-mediated currents (Fig. 1g, h)
